In ChEMBL document CHEMBL1201862, “PubChem BioAssay data set” (2004):
Activity calls are given as the source filed them.

Tests used:
[1] = THP-1 cell cytotoxicity, dose response, cytotoxicity control for non-replicating M. tuberculosis project (AID 489025); type: functional
[2] = HepG2 cell cytotoxicity, dose response, cytotoxicity control for non-replicating M. tuberculosis project (AID 489018); type: functional; details: Mycobacterium tuberculosis
[3] = Vero E6 cell cytotoxicity, dose response, cytotoxicity control for non-replicating M. tuberculosis project, secondary assay (AID 492998); type: functional, VeroE6; details: Vero C1008
[4] = cells; type: functional
[5] = biological target: Potassium voltage-gated channel subfamily KQT member 2 (Rattus norvegicus, UniProt O88943); assay: retigabine-insensitive KCNQ2 potentiators, concentration-response, dose response, cell-based, retigabine-insensitive compounds (AID 2654); type: functional
[6] = test system: Saccharomyces cerevisiae; assay: NALP1 inhibitor project selectivity study, Caspase-1/ASC signal blockade IC50 in S. cerevisiae (AID 488863); type: functional, organism-based
[7] = biological target: NACHT, LRR and PYD domains-containing protein 1 (Homo sapiens, UniProt Q9C000); assay: NALP1 inhibitors in yeast, dose response, luminescent (AID 488860); type: functional
[8] = biological target: NACHT, LRR and PYD domains-containing protein 3 (Homo sapiens, UniProt Q96P20); assay: NALP3 inhibitors in yeast, dose response, luminescent (AID 488799); type: functional
[9] = biological target: 1-acylglycerol-3-phosphate O-acyltransferase ABHD5/Perilipin-5 (Homo sapiens, UniProt Q00G26+Q8WTS1); assay: Luminescence-based biochemical high throughput dose response assay for inhibitors of the interaction of the lipase co-activator protein, abhydrolase domain containing 5 (ABHD5) with perilipin-5 (MLDP; PLIN5) (2K validation set). [Related pubchem assays (depositor defined):AID493035, AID493241]
[10] = biological target: Perilipin-1/ABHD5 (Homo sapiens, UniProt O60240+Q8WTS1); assay: Luminescence-based biochemical high throughput dose response assay for inhibitors of the interaction of the lipase co-activator protein, abhydrolase domain containing 5 (ABHD5) with perilipin-1 (PLIN1) (2K validation set). [Related pubchem assays (depositor defined):AID493027, AID493057]
[11] = biological target: Heat shock protein HSP 90-alpha (Homo sapiens, UniProt P07900); type: functional, organism-based
[12] = biological target: Voltage-dependent T-type calcium channel subunit alpha-1H (Homo sapiens, UniProt O95180); assay: Cav3.2 T-type channel inhibitors, cell-based, synthetic library set 1, calcium flux (AID 493022); type: functional
[13] = cytotoxicity in NIH/3T3 mouse fibroblasts, dose response, cytotoxicity control, cell-based, mouse embryonic fibroblasts, dry powder, set 2 (AID 493247); type: functional; details: Fibroblast
[14] = test system: Trypanosoma cruzi; assay: growth inhibition of intracellular Trypanosoma cruzi, dose response, cell-based, plate reader, dry powder, set 3 (AID 493197); type: functional
[15] = biological target: Prothrombin (Homo sapiens, UniProt P00734); assay: Thrombin 1536 HTS Dose Response Confirmation. [Related pubchem assays: 1046 (Thrombin 1536 HTS; hits were confirmed in this assay)]; type: functional
[16] = biological target: Neurotensin receptor type 1 (Homo sapiens, UniProt P30989); type: functional;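 also: Image-based confirmatory dose-response assay measuring agonist activity at NTR1; NTR1-expressing U2OS osteosarcoma cells imaged for beta-arrestin GFP spot formation; agonist potency where compounds increase beta-arrestin recruitment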
[17] = inhibition of K1F phage lysis, E. coli UTI89, bacterial capsule biogenesis inhibitors, alamar blue (AID 488966); type: functional
[18] = biological target: Melanin-concentrating hormone receptor 1 (Homo sapiens, UniProt Q99705); assay: Late-stage fluorescence-based counterscreen for antagonists of the G-protein coupled receptor 7 (GPR7): cell-based dose response assay to identify antagonists of the melanin-concentrating hormone receptor 1 (MCHR1). [Related pubchem assays (depositor defined):AID1861, AID1880, AID1952, AID2148, AID2251, AID2257, AID485339]; type: functional;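 also: stimulated with 30 nM MCH peptide agonist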
[19] = biological target: T1, Neuropeptides B/W receptor type 1 (Homo sapiens, UniProt P48145); assay: GPR7 antagonist potency, late-stage follow-up, cell-based, fluorescence, dose response (AID 463251); type: functional
T1 sequence (P48145 whole entry): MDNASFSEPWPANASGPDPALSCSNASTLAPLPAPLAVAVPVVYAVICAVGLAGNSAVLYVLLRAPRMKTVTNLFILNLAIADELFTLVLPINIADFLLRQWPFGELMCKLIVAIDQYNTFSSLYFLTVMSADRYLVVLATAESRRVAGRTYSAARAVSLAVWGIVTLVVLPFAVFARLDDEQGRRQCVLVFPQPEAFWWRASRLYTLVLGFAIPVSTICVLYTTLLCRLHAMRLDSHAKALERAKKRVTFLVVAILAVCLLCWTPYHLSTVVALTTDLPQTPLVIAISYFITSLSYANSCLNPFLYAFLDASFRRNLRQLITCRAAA

[20] = NIH-3T3 fibroblast cytotoxicity, dose response, cytotoxicity control, cell-based, fluorescence, Alamar Blue, secondary assay (AID 2327); type: functional;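 also: NIH-3T3 mouse fibroblasts cultured with fluconazole at 8 µg/mL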
[21] = C. albicans growth with fluconazole, confirmation, fluorescence, retest (AID 2467); type: functional, cell-based
[22] = biological target: T2, Serine/threonine-protein phosphatase (Candida dubliniensis (strain CD36 / CBS 7987 / NCPF 3949 / NRRLY-17841) (Yeast), UniProt B9W6M3); assay: calcineurin pathway inhibitors in yeast reporter, dose response, S. cerevisiae, CDRE-lacZ, luminescence, secondary (AID 2388); type: functional, cell-based;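 also: yeast reporter cells carrying a calcineurin-responsive lacZ construct stimulated with calcium chloride; luminescent beta-galactosidase reporter signal in whole cells rather than isolated phosphatase activity; potency for inhibition where a drop in reporter signal means calcineurin blockade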
T2 sequence (B9W6M3 whole entry): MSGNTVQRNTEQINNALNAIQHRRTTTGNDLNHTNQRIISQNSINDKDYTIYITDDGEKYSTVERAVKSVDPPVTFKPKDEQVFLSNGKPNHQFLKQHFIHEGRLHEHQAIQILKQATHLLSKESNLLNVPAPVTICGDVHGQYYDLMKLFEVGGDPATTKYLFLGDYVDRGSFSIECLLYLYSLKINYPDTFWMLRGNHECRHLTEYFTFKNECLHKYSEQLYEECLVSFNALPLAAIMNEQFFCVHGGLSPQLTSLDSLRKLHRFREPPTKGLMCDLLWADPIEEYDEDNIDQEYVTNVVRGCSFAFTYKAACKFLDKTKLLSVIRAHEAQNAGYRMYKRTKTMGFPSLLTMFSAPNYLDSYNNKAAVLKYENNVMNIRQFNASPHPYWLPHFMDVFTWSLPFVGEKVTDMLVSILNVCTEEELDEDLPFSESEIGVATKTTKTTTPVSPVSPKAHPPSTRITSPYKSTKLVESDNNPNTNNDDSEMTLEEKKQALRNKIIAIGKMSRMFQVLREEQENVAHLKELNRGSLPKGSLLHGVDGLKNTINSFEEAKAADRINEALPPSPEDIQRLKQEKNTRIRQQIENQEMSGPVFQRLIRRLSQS

[23] = Cytotoxicity screening for potential Inhibitors of Bacterial Capsule Biogenesis. [Related pubchem assays (depositor defined):AID488970]; type: functional
[24] = biological target: ATP-dependent molecular chaperone HSP82 (Candida albicans (strain WO-1) (Yeast), UniProt C4YTQ8); assay: loss of DOC-induced GRE-beta-galactosidase reporter signal, dose response, Hsp90 inhibitor project, S. cerevisiae, luminescence (AID 2400); type: functional, cell-based;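 also: beta-galactosidase luminescence from glucocorticoid response element reporter as proxy for Hsp90 function; inhibitor potency where signal loss means Hsp90 inhibition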
[25] = biological target: T3, Coagulation factor XII (Homo sapiens, UniProt P00748); assay: FXIIa inhibitor potency, concentration-response, biochemical (AID 716); type: functional
T3 sequence (P00748 whole entry): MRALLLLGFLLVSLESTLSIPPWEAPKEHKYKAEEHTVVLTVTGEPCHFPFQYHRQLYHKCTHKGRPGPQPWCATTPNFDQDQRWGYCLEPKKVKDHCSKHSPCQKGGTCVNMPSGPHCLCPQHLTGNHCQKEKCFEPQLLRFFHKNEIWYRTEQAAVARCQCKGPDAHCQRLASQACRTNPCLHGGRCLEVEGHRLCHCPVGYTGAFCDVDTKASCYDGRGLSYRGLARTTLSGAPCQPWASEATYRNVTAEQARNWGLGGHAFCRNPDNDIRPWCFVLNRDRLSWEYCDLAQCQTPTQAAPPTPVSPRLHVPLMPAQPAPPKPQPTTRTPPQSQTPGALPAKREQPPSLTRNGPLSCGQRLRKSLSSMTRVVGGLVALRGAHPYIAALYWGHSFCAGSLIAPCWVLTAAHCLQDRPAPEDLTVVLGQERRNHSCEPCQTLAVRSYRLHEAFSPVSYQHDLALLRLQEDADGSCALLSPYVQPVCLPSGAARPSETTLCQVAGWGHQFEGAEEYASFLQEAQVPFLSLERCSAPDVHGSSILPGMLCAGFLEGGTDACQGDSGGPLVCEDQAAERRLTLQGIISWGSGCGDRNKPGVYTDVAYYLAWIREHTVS

[26] = biological target: T4, Voltage-gated N-type calcium channel alpha-1B subunit/Amyloid beta A4 precursor protein-binding family A member 1 (Homo sapiens, UniProt Q00975+Q02410); assay: disruptors of Mint-PDZ/N-type channel peptide interaction – biochemical, HTRF, set 2, SAR follow-up (AID 434980); type: functional
[27] = biological target: T4, Voltage-gated N-type calcium channel alpha-1B subunit/Amyloid beta A4 precursor protein-binding family A member 1; assay: disruptors of Mint-PDZ/N-type channel peptide interaction – biochemical, HTRF, SAR follow-up (AID 2489); type: functional
[28] = biological target: Protein Rev (Human immunodeficiency virus type 1 group M subtype B (isolate HXB2)(HIV-1), UniProt P04618); assay: inhibitors of Rev binding to RRE RNA, dose response, biochemical, fluorescence polarization, HIV-1 (AID 434976); parameters: species or system Human immunodeficiency virus 1
[29] = biological target: Female germline-specific tumor suppressor gld-1 (Caenorhabditis elegans, UniProt Q17339); assay: inhibitors of GLD-1 binding to TGE RNA, dose response, biochemical, fluorescence polarization, C. elegans (AID 2802);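 also: fluorescence polarization of labeled TGE RNA bound by purified gld-1 protein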
[30] = biological target: Eukaryotic translation initiation factor 4E (Mus musculus, UniProt P63073); assay: eIF4E–eIF4G protein interaction inhibitors, dose response, biochemical, TR-FRET (AID 855); type: functional;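 also: potency for disrupting eIF4E binding to eIF4GI seen as loss of FRET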

T4 sequence (Q00975 whole entry): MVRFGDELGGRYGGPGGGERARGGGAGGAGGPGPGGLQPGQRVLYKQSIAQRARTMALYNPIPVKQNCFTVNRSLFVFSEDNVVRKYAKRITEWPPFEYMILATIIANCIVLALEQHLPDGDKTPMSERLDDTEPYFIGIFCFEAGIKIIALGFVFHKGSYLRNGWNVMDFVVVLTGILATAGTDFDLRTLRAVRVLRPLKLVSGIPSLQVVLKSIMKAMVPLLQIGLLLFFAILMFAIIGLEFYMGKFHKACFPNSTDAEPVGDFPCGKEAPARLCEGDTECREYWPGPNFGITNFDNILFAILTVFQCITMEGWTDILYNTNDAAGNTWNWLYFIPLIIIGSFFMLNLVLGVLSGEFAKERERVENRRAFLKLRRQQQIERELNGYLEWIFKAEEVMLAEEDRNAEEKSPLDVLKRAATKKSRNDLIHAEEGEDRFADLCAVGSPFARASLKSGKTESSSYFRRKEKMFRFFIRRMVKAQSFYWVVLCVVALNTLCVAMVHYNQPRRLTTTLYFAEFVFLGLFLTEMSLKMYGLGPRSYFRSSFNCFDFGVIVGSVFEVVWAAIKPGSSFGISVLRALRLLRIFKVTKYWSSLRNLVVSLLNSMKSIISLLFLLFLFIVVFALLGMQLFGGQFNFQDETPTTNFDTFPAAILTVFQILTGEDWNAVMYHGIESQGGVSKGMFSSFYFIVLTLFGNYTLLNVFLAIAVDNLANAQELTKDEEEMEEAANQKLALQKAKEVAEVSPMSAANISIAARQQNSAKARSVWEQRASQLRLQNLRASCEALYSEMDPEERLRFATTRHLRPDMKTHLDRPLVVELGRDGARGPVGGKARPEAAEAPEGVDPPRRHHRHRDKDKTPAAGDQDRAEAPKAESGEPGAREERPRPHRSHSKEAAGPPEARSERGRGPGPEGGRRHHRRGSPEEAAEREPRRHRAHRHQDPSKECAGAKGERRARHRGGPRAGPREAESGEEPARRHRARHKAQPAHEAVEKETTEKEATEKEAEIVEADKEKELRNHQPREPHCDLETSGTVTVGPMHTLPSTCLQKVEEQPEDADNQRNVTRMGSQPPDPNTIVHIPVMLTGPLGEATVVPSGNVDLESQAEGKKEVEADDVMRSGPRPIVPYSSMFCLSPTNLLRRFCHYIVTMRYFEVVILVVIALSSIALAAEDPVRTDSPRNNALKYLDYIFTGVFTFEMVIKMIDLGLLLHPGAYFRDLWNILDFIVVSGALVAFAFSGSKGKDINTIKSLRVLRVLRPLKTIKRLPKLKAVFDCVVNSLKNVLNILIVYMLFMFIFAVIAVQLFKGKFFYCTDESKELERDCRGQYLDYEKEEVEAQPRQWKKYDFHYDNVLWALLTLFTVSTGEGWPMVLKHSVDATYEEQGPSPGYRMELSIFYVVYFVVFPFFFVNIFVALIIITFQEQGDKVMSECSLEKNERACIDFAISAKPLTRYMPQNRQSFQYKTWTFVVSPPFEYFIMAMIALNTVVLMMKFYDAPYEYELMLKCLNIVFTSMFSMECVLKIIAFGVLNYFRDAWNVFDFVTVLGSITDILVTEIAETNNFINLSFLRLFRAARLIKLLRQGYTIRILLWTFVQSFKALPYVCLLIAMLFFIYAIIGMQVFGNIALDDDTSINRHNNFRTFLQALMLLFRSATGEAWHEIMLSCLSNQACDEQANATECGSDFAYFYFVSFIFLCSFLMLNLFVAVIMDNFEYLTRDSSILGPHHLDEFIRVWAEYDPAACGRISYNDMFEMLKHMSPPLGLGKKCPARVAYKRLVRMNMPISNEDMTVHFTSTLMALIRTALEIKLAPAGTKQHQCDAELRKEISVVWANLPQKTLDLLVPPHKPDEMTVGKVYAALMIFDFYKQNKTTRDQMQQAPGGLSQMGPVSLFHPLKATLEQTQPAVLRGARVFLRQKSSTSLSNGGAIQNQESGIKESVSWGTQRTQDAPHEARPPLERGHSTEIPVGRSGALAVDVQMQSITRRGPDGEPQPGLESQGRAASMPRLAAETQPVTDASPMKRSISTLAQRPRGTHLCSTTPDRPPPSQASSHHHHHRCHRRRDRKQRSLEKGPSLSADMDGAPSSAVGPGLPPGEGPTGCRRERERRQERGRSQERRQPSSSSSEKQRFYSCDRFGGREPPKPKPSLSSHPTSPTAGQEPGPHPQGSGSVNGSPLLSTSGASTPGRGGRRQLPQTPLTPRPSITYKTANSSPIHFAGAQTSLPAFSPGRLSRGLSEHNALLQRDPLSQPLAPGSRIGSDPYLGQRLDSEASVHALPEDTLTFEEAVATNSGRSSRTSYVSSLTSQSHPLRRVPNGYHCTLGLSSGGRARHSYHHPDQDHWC
T4 sequence (Q02410 whole entry): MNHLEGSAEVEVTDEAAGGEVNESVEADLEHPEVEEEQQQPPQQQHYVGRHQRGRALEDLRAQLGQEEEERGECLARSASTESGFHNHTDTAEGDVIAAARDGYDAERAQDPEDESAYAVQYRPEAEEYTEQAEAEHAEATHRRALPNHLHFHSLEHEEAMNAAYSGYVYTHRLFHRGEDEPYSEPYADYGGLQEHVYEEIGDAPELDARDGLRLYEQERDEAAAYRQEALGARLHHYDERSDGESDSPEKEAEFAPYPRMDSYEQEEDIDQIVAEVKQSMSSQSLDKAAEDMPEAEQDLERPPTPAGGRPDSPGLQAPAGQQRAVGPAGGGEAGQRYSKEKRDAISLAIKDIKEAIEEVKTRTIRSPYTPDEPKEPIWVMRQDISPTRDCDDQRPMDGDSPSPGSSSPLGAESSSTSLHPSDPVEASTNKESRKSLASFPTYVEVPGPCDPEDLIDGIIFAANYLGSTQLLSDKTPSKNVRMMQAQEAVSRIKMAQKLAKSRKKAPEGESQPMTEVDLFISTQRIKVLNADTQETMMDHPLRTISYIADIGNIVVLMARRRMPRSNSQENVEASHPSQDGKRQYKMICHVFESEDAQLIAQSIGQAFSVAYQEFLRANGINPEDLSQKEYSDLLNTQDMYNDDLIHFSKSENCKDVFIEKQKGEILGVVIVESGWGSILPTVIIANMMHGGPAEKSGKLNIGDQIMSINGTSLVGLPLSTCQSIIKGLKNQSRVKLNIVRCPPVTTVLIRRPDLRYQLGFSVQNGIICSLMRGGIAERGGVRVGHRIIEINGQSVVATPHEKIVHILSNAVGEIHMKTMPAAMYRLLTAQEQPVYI
Sequence of Perilipin-1/ABHD5 (Q8WTS1 whole entry, the tested form may be a part): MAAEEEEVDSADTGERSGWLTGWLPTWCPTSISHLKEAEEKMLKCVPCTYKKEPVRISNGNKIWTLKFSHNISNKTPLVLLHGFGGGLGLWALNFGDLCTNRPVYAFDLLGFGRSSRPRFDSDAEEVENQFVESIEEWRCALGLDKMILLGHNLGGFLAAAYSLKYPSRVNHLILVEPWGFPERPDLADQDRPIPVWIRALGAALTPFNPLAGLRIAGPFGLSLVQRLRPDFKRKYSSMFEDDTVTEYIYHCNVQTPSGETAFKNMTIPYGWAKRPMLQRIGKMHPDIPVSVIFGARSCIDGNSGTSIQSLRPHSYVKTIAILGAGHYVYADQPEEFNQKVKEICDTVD
Sequence of Perilipin-1/ABHD5 (O60240 whole entry, the tested form may be a part): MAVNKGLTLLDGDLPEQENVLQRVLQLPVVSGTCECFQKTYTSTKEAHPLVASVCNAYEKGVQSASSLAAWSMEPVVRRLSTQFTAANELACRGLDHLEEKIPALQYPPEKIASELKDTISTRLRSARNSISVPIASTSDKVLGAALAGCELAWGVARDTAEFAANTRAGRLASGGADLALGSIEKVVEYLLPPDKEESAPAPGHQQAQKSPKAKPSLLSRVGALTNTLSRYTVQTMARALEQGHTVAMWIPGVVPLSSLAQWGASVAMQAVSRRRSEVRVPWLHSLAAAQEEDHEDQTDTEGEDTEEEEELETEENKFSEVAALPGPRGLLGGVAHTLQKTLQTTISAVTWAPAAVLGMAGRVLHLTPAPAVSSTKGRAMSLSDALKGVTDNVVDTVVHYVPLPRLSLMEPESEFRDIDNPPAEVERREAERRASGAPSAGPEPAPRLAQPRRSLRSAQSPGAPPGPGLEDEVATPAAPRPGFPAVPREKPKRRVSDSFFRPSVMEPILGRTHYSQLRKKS
Sequence of ATP-dependent molecular chaperone HSP82 (C4YTQ8 whole entry): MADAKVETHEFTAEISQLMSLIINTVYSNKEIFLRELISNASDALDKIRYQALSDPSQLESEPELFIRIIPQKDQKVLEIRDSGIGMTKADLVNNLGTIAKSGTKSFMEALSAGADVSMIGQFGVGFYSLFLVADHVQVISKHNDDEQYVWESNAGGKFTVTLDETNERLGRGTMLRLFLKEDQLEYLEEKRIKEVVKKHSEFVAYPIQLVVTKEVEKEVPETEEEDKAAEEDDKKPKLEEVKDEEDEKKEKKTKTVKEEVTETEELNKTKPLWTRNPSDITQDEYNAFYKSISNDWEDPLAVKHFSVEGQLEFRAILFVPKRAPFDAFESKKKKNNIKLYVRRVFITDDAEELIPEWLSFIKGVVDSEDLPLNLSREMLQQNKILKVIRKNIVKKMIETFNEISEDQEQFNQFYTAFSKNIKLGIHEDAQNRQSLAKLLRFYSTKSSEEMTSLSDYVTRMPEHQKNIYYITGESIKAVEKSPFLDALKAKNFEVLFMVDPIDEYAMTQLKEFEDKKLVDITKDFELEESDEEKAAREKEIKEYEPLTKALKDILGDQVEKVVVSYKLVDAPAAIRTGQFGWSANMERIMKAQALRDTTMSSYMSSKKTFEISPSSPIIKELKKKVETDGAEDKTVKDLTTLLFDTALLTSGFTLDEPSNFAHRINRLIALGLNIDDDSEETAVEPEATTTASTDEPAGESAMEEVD
Sequence of Protein Rev (P04618 whole entry): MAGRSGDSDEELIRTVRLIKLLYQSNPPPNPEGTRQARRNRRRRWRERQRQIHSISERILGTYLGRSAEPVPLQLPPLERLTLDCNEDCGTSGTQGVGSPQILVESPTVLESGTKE

In the case of `O=C(NNC(=O)c1ccccn1)c1cccc([N+](=O)[O-])c1`, the CC50 [1] was 26.7 µM (active), the CC50 [2] was > 20 µM (active) and the CC50 [3] was 9.98 µM (active). For the same molecule, the IC50 [4] was 10.9 µM (active).

In the case of `S=C(Nc1cccnc1)Nc1cccc(Cl)c1`, the EC50 [5] was 9.33 µM (active).

With `Cc1ccc(NC(=O)CNc2ccc(OC(C)C)cc2)cc1` the IC50 [6] was 42.6 µM (active) and the IC50 [7] was 22.6 µM (active).

With `COc1c(OC(C)=O)c(=O)n2c3ccccc3c3ccnc1c32` the IC50 [8] was 1.58 µM (active).

For `CC(C)N1C(=O)/C(=C\c2nc(O)c3ccccc3n2)c2ccccc21`, the IC50 [9] was 7.59 µM (active), the IC50 [10] was 6.84 µM (active) and the AC50 [11] was 5.37 µM (active).

For `CC(Oc1ccccc1)C(=O)Nc1nnc(-c2ccc(F)cc2)o1` (stereo not given), the EC50 [12] was 10 µM (active).

With `O=C(COc1ccc2ccccc2c1)N/N=C/c1ccc([N+](=O)[O-])o1` the AC50 [13] was 22.3 µM (active) and the AC50 [14] was 0.837 µM (active).

In the case of `CCN1C(=O)/C(=C/N(C(C)=O)c2ccccc2)N(c2ccccc2)C1=S`, the IC50 [15] was > 50 µM (not active) and the EC50 [16] was 18 µM (active).

For `CC12CC3CC(C)(C1)CC(CN)(C3)C2`, the IC50 [17] was > 300 µM (active).

With `O=C(C1CCCCN1Cc1ccc(Cl)c(Cl)c1)N1CCN(c2ccc([N+](=O)[O-])cc2)CC1` (stereo not given) the IC50 [18] was 4.6 µM (active) and the IC50 [19] was 2.3 µM (active).

In the case of `O=C(NCc1cc([N+](=O)[O-])ccc1O)c1cccnc1Sc1ccccc1Cl`, the EC50 [20] was > 150 µM (inactive), the EC50 [21] was 0.848 µM (active) and the EC50 [22] was > 180 µM (inactive). For the same molecule, the CC50 [23] was > 100 µM (active) and the EC50 [24] was > 150 µM (inactive).

In the case of `CCCS(=O)(=O)N1CCN(c2ccccc2F)CC1`, the IC50 [25] was > 50 µM (inactive).

With `CC(/C=C/c1ccco1)=NNC(=O)c1cccnc1` the IC50 [26] was 6.99 µM (active) and the IC50 [27] was 21.4 µM (active).

With `C=CCc1cccc(/C=N/n2c(C)nnc2C)c1O` the IC50 [28] was > 8.39 µM (active) and the IC50 [29] was 8.19 µM (active).

For `COc1ccc(-n2c(Cc3cccn3C)nnc2SCC(=O)Nc2cccc(F)c2)cc1`, the IC50 [30] was > 64 µM (inactive).
